# From US20080038267A1, “Treatment Of Cancer” (NEUTEC PHARMA LIMITED, priority 2004, published 2008)
# Read-outs that look alike come from different tables or passages of the source.
# B1: Mycograb: anti-Hsp90 antibody disclosed in WO 01/76627, sequence of SEQ ID NO: 2, specific for epitope of peptide SEQ ID NO: 1 (protein)
# chain: HMAEVQLVESGAEVKKPGESLRISCKGSGCIISSYWISWVRQMPGKGLEWMGKIDPGDSYINYSPSFQGHVTISADKSINTAYLQWNSLKASDTAMYYCARGGRDFGDSFDYWGQGTLVTVSSGGGGSGGGGSGGGGSDVVMTQSPSFLSAFVGDRITITCRASSGISRYLAWYQQAPGKAPKLLIYAASTLQTGVPSRFSGSGSGTEFTLTINSLQPEDFATYYCQHLNSYPLTFGGGTKVDIKRAA
# Columns and labels:
# HT29 cells [1] = experiment: Cell Titer Blue viability, drugs without Mycograb or Mycograb alone, HT29 cells; format: cell-based, human; details: for IC50: 5-FU tested plus 1 mg/ml Folinic acid
# Experimental: (§1) Viable cells reduce resazurin to resorufin (pink).
# (§2) Cell growth was evaluated as described above.
# Human colon adenocarcinoma grade 11 cell line HT29, was obtained from ECACC (ECACC number 91072201).
# The cell lines were split and the cells counted. […] The next day, the cells were observed under phase contrast microscopy to ensure they had adhered to the plates and the supernatant medium removed by aspiration. 100 μl of fresh complete RPMI medium containing increasing two fold concentrations of study drug (5-FU 4.5-2400 μg/ml plus 1 mg/ml Folinic acid or Oxaliplatin 1-500 μg/ml) or medium alone (Media+2.5% DMSO for 5-FU control) was then added to the wells.
# HT29 cells [2] = experiment: Checkerboard of Mycograb versus 5-FU/Folinic acid and/or Oxaliplatin, median effect analysis (CI), HT29 cells; format: cell-based, human; details: for Dm: median effect analysis (Calcusyn)
# Description: as §1
# CI values are shown for Fa50.
# (§3) The cell lines were split and the cells counted.
# as §3
# [3] = tested on: Hsp 90 in multi-chaperone complexes derived from tumour cells; details: higher than Hsp90 from normal cells (latent uncomplexed state); cited from earlier work
# MCF7 cells = experiment: Cell Titer Blue viability, single drug, MCF7 cells; format: cell-based, human
# Experimental: (§4) Viable cells reduce resazurin to resorufin (pink). Cell growth was evaluated as described above. […] The cell lines were split and cells counted. […] The next day, the cells were observed under phase contrast microscopy to ensure they had adhered to the plates and the supernatant medium removed by aspiration.
# HS578T cells = experiment: Cell Titer Blue viability, single drug, HS578T cells; format: cell-based, human
# Experimental: as §4
# K562 cells = experiment: Cell Titer Blue viability, single drug, K562 cells
# Experimental: as §1, §2
# K562 was established from pleural effusion of person with chronic myelogenous leukaemia in terminal blast crisis. […] The line used in these experiments was the K562B. […] K562B has been compared to K562A and K562 C, with respect to growth kinetics, cell surface protein markers, surface antigens, cytogenetics and hemoglobin production.
# (§5) The cell lines were counted. […] Fresh medium containing either two-fold increasing concentrations of Mycograb® (1.5-200 μg/ml), or medium alone was then added to the wells. The plate was returned to the incubator for 48 hours following which the cell titre blue assay was carried out, or viable counts were determined using a haemocytometer.
# (§6) The cell lines were counted. […] The plates were returned to the incubator for 48 hours following which cell titre blue assays were carried out.
# KU-812 cells = experiment: Cell Titer Blue viability, single drug, KU-812 cells; details: Mycograb on its own at 50 μg/ml
# Experimental: as §1, §2, §5, §6
# [4] = K562 cells, single drug, 48 hour incubation
# [5] = Homo sapiens, MCF7 cells, single drug, 48 hour incubation, read-out: IC50
# [6] = Homo sapiens, Hs-578T, HS578T cells, single drug, 48 hour incubation, read-out: IC50
molecule,measurement,setting,value
"O=c1[nH]cc(F)c(=O)[nH]1 [5-FU, 5-Fluorouracil]",IC50,"HT29 cells [1]; Homo sapiens, HT-29, 48 hours, read-out: IC50",150 µg/mL
same,IC50,"HT29 cells [2]; Homo sapiens, HT-29, median effect analysis (Calcusyn), read-out: Dm",297 µg/mL
"C=CCNC1=C2C[C@@H](C)C[C@H](OC)[C@H](O)[C@@H](C)/C=C(\C)[C@H](OC(N)=O)[C@@H](OC)/C=C\C=C(/C)C(=O)NC(=CC1=O)C2=O [17AAG, 17-allylamino, 17-desmethoxygeldanamycin]","binding affinity for 17AAG, Hsp 90 in tumour-cell multi-chaperone complexes versus Hsp90 from normal cells",[3],100 fold
N.N.[Cl][Pt][Cl] [Cisplatin],IC50,"MCF7 cells; MCF7 cells, single drug, 48 hour incubation",6 µg/mL
same,IC50,"HS578T cells; HS578T cells, single drug, 48 hour incubation",12.5 µg/mL
same,IC50,K562 cells; [4],12.5 µg/mL
COc1cccc2c1C(=O)c1c(O)c3c(c(O)c1C2=O)C[C@@](O)(C(C)=O)C[C@@H]3O[C@H]1C[C@H](N)[C@H](O)[C@H](C)O1 [Daunorubicin],IC50,"MCF7 cells; Homo sapiens, MCF7, 48 h",1 µg/mL
same,IC50,"HS578T cells; Homo sapiens, Hs-578T, 48 h",1 µg/mL
same,IC50,"K562 cells; Homo sapiens, K562, 48 h",0.75 µg/mL
CC(=O)O[C@@]12CO[C@@H]1C[C@H](O)[C@@]1(C)C(=O)[C@H](O)C3=C(C)[C@@H](OC(=O)[C@H](O)[C@@H](NC(=O)OC(C)(C)C)c4ccccc4)C[C@@](O)([C@@H](OC(=O)c4ccccc4)[C@H]21)C3(C)C [Docetaxel],IC50,MCF7 cells; [5],225 µg/mL
same,IC50,HS578T cells; [6],50 µg/mL
same,IC50,"K562 cells; Homo sapiens, K562, 48 h",70 µg/mL
COc1cccc2c1C(=O)c1c(O)c3c(c(O)c1C2=O)C[C@@](O)(C(=O)CO)C[C@@H]3O[C@H]1C[C@H](N)[C@H](O)[C@H](C)O1 [Doxorubicin],IC50,MCF7 cells; [5],1.75 µg/mL
same,IC50,HS578T cells; [6],1 µg/mL
same,IC50,"K562 cells; Homo sapiens, K562, 48 h",1 µg/mL
NC(=O)NO [Hydroxyurea],IC50,K562 cells; [4],never reached
O=C1[O][Pt]2([NH][C@@H]3CCCC[C@H]3[NH]2)[O]C1=O [Oxaliplatin],IC50,HT29 cells [1]; 48 hours,16 µg/mL
same,Dm,HT29 cells [2],27.77
CC(=O)O[C@H]1C(=O)[C@@]2(C)[C@H]([C@H](OC(=O)c3ccccc3)[C@]3(O)C[C@H](OC(=O)[C@H](O)[C@@H](NC(=O)c4ccccc4)c4ccccc4)C(C)=C1C3(C)C)[C@]1(OC(C)=O)CO[C@@H]1C[C@@H]2O [Paclitaxel],IC50,MCF7 cells; [5],225 µg/mL
same,IC50,"K562 cells; Homo sapiens, K562, 48 h",32 µg/mL
B1,sensitivity of cell line to Mycograb alone,"HS578T cells; HS578T cells, increasing concentrations up to 400 mg/l",insensitive
same,reduction in cell viability,"K562 cells; K562 cells, Mycograb on its own at 12.5 μg/ml",40%
same,reduction in cell viability,KU-812 cells,40%
same,reduction in cell viability,HT29 cells [1]; Mycograb on its own at 125 μg/ml,50%
same,Dm,HT29 cells [2],96.47
